In PubChem BioAssay AID1919013 (Molecular Pharmacology Branch, DTP, NCI, 2023):
“And” between values parts separate entries of the source, which are not always exact repeats. Identical values can stand only once. Blank lines part the entries; values can stand above or below the molecule they belong to.

System: LG0703-F498-PDC complex spheroid growth
Test: Anticancer human tumor LG0703-F498-PDC patient-derived lung adenocarcinoma cell line growth inhibition [AhR]
Conditions: for viability, T/C: stronger effect = lower value
Method in brief: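 Agents were dosed in half-log steps down from roughly clinical Cmax, or from 10 microM where Cmax was unknown, alone and with AhR antagonists. Read-out: percent test/control growth of tumor spheroids containing HUVEC and MSC stromal cells.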

[1] = curve of first compound, second compound 0.1 µM
[2] = curve of first compound, second compound 0.316 µM
[3] = curve of first compound, second compound 1 µM
[4] = curve of first compound, second compound 3.16 µM
[5] = curve of first compound, second compound 10 µM
[6] = second compound 0.1 µM, first compound 0.0316 µM
[7] = second compound 0.1 µM, first compound 0.1 µM
[8] = second compound 0.1 µM, first compound 0.316 µM
[9] = second compound 0.1 µM, first compound 1 µM
[10] = second compound 0.1 µM, first compound 3.16 µM
[11] = second compound 0.1 µM, first compound 10 µM
[12] = second compound 0.316 µM, first compound 0.0316 µM
[13] = second compound 0.316 µM, first compound 0.1 µM
[14] = second compound 0.316 µM, first compound 0.316 µM
[15] = second compound 0.316 µM, first compound 1 µM
[16] = second compound 0.316 µM, first compound 3.16 µM
[17] = second compound 0.316 µM, first compound 10 µM
[18] = second compound 1 µM, first compound 0.0316 µM
[19] = second compound 1 µM, first compound 0.1 µM
[20] = second compound 1 µM, first compound 0.316 µM
[21] = second compound 1 µM, first compound 1 µM
[22] = second compound 1 µM, first compound 3.16 µM
[23] = second compound 1 µM, first compound 10 µM
[24] = second compound 3.16 µM, first compound 0.0316 µM
[25] = second compound 3.16 µM, first compound 0.1 µM
[26] = second compound 3.16 µM, first compound 0.316 µM
[27] = second compound 3.16 µM, first compound 1 µM
[28] = second compound 3.16 µM, first compound 3.16 µM
[29] = second compound 3.16 µM, first compound 10 µM
[30] = second compound 10 µM, first compound 0.0316 µM
[31] = second compound 10 µM, first compound 0.1 µM
[32] = second compound 10 µM, first compound 0.316 µM
[33] = second compound 10 µM, first compound 1 µM
[34] = second compound 10 µM, first compound 3.16 µM
[35] = second compound 10 µM, first compound 10 µM
[36] = second compound 0.1 µM, first compound 0.000949 µM
[37] = second compound 0.1 µM, first compound 0.003 µM
[38] = second compound 0.1 µM, first compound 0.00949 µM
[39] = second compound 0.1 µM, first compound 0.03 µM
[40] = second compound 0.1 µM, first compound 0.0949 µM
[41] = second compound 0.1 µM, first compound 0.3 µM
[42] = second compound 0.316 µM, first compound 0.000949 µM
[43] = second compound 0.316 µM, first compound 0.003 µM
[44] = second compound 0.316 µM, first compound 0.00949 µM
[45] = second compound 0.316 µM, first compound 0.03 µM
[46] = second compound 0.316 µM, first compound 0.0949 µM
[47] = second compound 0.316 µM, first compound 0.3 µM
[48] = second compound 1 µM, first compound 0.000949 µM
[49] = second compound 1 µM, first compound 0.003 µM
[50] = second compound 1 µM, first compound 0.00949 µM
[51] = second compound 1 µM, first compound 0.03 µM
[52] = second compound 1 µM, first compound 0.0949 µM
[53] = second compound 1 µM, first compound 0.3 µM
[54] = second compound 3.16 µM, first compound 0.000949 µM
[55] = second compound 3.16 µM, first compound 0.003 µM
[56] = second compound 3.16 µM, first compound 0.00949 µM
[57] = second compound 3.16 µM, first compound 0.03 µM
[58] = second compound 3.16 µM, first compound 0.0949 µM
[59] = second compound 3.16 µM, first compound 0.3 µM
[60] = second compound 10 µM, first compound 0.000949 µM
[61] = second compound 10 µM, first compound 0.003 µM
[62] = second compound 10 µM, first compound 0.00949 µM
[63] = second compound 10 µM, first compound 0.03 µM
[64] = second compound 10 µM, first compound 0.0949 µM
[65] = second compound 10 µM, first compound 0.3 µM
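Further: luminescence taken as a proxy for viable cell amount.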
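Wherever viability, T/C is given: percent of DMSO vehicle control where 100% means growth equal to vehicle.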

SMILES: Nc1ccn(C2OC(CO)C(O)C2(F)F)c(=O)n1 (configuration not stated) + Cc1cncc(-c2nc(NCCc3c[nH]c4ccccc34)c3ncn(C(C)C)c3n2)c1
- IC50 [1]: < 31.6 nM
- IC50 [2]: < 31.6 nM
- IC50 [3]: < 31.6 nM
- IC50 [4]: < 31.6 nM
- IC50 [5]: < 31.6 nM
- viability, T/C [6]: 40.6%
- viability, T/C [7]: 36.2%
- viability, T/C [8]: 31.3%
- viability, T/C [9]: 28.9%
- viability, T/C [10]: 28.2%
- viability, T/C [11]: 18.8%
- viability, T/C [12]: 39.7%
- viability, T/C [13]: 37.6%
- viability, T/C [14]: 35%
- viability, T/C [15]: 28.1%
- viability, T/C [16]: 26.4%
- viability, T/C [17]: 17.9%
- viability, T/C [18]: 33.5%
- viability, T/C [19]: 40%
- viability, T/C [20]: 32.2%
- viability, T/C [21]: 28.8%
- viability, T/C [22]: 24.1%
- viability, T/C [23]: 19.9%
- viability, T/C [24]: 24.4%
- viability, T/C [25]: 26.7%
- viability, T/C [26]: 29.4%
- viability, T/C [27]: 19.5%
- viability, T/C [28]: 18.1%
- viability, T/C [29]: 17.9%
- viability, T/C [30]: 0.88%
- viability, T/C [31]: 1.65%
- viability, T/C [32]: 1.55%
- viability, T/C [33]: 1.08%
- viability, T/C [34]: 1.14%
- viability, T/C [35]: 1.93%

SMILES: CC1COCCN1c1cc(C2(S(C)(=N)=O)CC2)nc(-c2ccnc3[nH]ccc23)n1 (configuration not stated) + CC(CO)NC(=O)c1cc(-c2ccc(Cl)cc2)nn(-c2cnn(C)c2)c1=O
- IC50 [1]: > 10000 nM
- IC50 [2]: > 10000 nM
- IC50 [3]: > 10000 nM
- IC50 [4]: > 10000 nM
- IC50 [5]: > 10000 nM
- viability, T/C [6]: 101%
- viability, T/C [7]: 91.6%
- viability, T/C [8]: 89.7%
- viability, T/C [9]: 99.3%
- viability, T/C [10]: 79.1%
- viability, T/C [11]: 63.4%
- viability, T/C [12]: 92.6%
- viability, T/C [13]: 91.7%
- viability, T/C [14]: 93.7%
- viability, T/C [15]: 90.2%
- viability, T/C [16]: 86%
- viability, T/C [17]: 53.1%
- viability, T/C [18]: 97.8%
- viability, T/C [19]: 92.8%
- viability, T/C [20]: 88.3%
- viability, T/C [21]: 91%
- viability, T/C [22]: 68.8%
- viability, T/C [23]: 60%
- viability, T/C [24]: 89.9%
- viability, T/C [25]: 89%
- viability, T/C [26]: 95.8%
- viability, T/C [27]: 82.3%
- viability, T/C [28]: 79.1%
- viability, T/C [29]: 59.1%
- viability, T/C [30]: 76.1%
- viability, T/C [31]: 95.3%
- viability, T/C [32]: 73.8%
- viability, T/C [33]: 83.7%
- viability, T/C [34]: 59.6%
- viability, T/C [35]: 51.3%

SMILES: CCc1c2c(nc3ccc(O)cc13)-c1cc3c(c(=O)n1C2)COC(=O)[C@]3(O)CC + Cc1ccccc1N=Nc1ccc(NC(=O)c2ccnn2C)c(C)c1
- IC50 [1]: 49.4 nM
- IC50 [2]: 43.3 nM
- IC50 [3]: 30.7 nM
- IC50 [4]: 23.9 nM
- IC50 [5]: 37.1 nM
- viability, T/C [36]: 79.1%
- viability, T/C [37]: 92.9%
- viability, T/C [38]: 77.1%
- viability, T/C [39]: 56.8%
- viability, T/C [40]: 41.5%
- viability, T/C [41]: 29.2%
- viability, T/C [42]: 98.5%
- viability, T/C [43]: 94.6%
- viability, T/C [44]: 75.8%
- viability, T/C [45]: 57.9%
- viability, T/C [46]: 35.6%
- viability, T/C [47]: 24.9%
- viability, T/C [48]: 86.5%
- viability, T/C [49]: 79.7%
- viability, T/C [50]: 69.2%
- viability, T/C [51]: 48.4%
- viability, T/C [52]: 36.3%
- viability, T/C [53]: 24.5%
- viability, T/C [54]: 93.9%
- viability, T/C [55]: 83.3%
- viability, T/C [56]: 64.3%
- viability, T/C [57]: 45%
- viability, T/C [58]: 34.1%
- viability, T/C [59]: 21.7%
- viability, T/C [60]: 65.8%
- viability, T/C [61]: 79%
- viability, T/C [62]: 69.1%
- viability, T/C [63]: 51.7%
- viability, T/C [64]: 35.8%
- viability, T/C [65]: 24.7%

Further lines, with some results ahead:

- IC50 [1]: 828 nM
- IC50 [2]: 809 nM
- IC50 [3]: 921 nM
- IC50 [4]: 901 nM
- IC50 [5]: 1280 nM
SMILES: O=C(C=Cc1cccc(S(=O)(=O)Nc2ccccc2)c1)NO + Cc1ccccc1N=Nc1ccc(NC(=O)c2ccnn2C)c(C)c1
- viability, T/C [6]: 106%
- viability, T/C [7]: 123%
- viability, T/C [8]: 84%
- viability, T/C [9]: 43.9%
- viability, T/C [10]: 12.4%
- viability, T/C [11]: 2.33%
- viability, T/C [12]: 110%
- viability, T/C [13]: 99.7%
- viability, T/C [14]: 81.6%
- viability, T/C [15]: 42.9%
- viability, T/C [16]: 13.5%
- viability, T/C [17]: 2.43%
- viability, T/C [18]: 122%
- viability, T/C [19]: 111%
- viability, T/C [20]: 83.9%
- viability, T/C [21]: 50.4%
- viability, T/C [22]: 12.6%
- viability, T/C [23]: 2.97%
- viability, T/C [24]: 97.2%
- viability, T/C [25]: 113%
- viability, T/C [26]: 86.5%
- viability, T/C [27]: 44.8%
- viability, T/C [28]: 17.8%
- viability, T/C [29]: 2.8%
- viability, T/C [30]: 103%
- viability, T/C [31]: 101%
- viability, T/C [32]: 74.7%
- viability, T/C [33]: 60.3%
- viability, T/C [34]: 25.9%
- viability, T/C [35]: 6.34%

- IC50 [1]: 5.15 nM
- IC50 [2]: 5 nM
- IC50 [3]: 5.26 nM
- IC50 [4]: 5 nM
- IC50 [5]: 5.1 nM
SMILES: CC(C)CC(NC(=O)C(Cc1ccccc1)NC(=O)c1cnccn1)B(O)O (configuration not stated) + Cc1ccccc1N=Nc1ccc(NC(=O)c2ccnn2C)c(C)c1
- viability, T/C [36]: 101%
- viability, T/C [37]: 85.3%
- viability, T/C [38]: 10%
- viability, T/C [39]: 0.56%
- viability, T/C [40]: 0.28%
- viability, T/C [41]: 0.18%
- viability, T/C [42]: 95.2%
- viability, T/C [43]: 80%
- viability, T/C [44]: 12.3%
- viability, T/C [45]: 0.81%
- viability, T/C [46]: 0.11%
- viability, T/C [47]: 0.12%
- viability, T/C [48]: 85.1%
- viability, T/C [49]: 85.8%
- viability, T/C [50]: 12.8%
- viability, T/C [51]: 0.76%
- viability, T/C [52]: 0.13%
- viability, T/C [53]: 0.17%
- viability, T/C [54]: 86.9%
- viability, T/C [55]: 78%
- viability, T/C [56]: 14.8%
- viability, T/C [57]: 1.06%
- viability, T/C [58]: 0.16%
- viability, T/C [59]: 0.29%
- viability, T/C [60]: 82%
- viability, T/C [61]: 81.3%
- viability, T/C [62]: 13.5%
- viability, T/C [63]: 1.28%
- viability, T/C [64]: 0.3%
- viability, T/C [65]: 0.39%

- IC50 (curve of compound): 4.29 nM and 5.5 nM and 2.88 nM
SMILES: CC(C)CC(NC(=O)C(Cc1ccccc1)NC(=O)c1cnccn1)B(O)O (configuration not stated)
- viability, T/C (compound 0.000949 µM): 99.7% and 97.7% and 92.7%
- viability, T/C (compound 0.003 µM): 69.5% and 94.8% and 48.4%
- viability, T/C (compound 0.00949 µM): 6.8% and 9.74% and 2.07%
- viability, T/C (compound 0.03 µM): 0.44% and 0.8% and 0.23%
- viability, T/C (compound 0.0949 µM): 0.15% and 0.2% and 0.16%
- viability, T/C (compound 0.3 µM): 0.19% and 0.35% and 0.18%
